Holding throughout (assay): relative viability (nuclei count vs DMSO), 5 days (fraction); higher = more cells survive
Compound in test [1]: O=C(Nc1cc(C(F)(F)F)cc(C(F)(F)F)c1)c1cc(Cl)ccc1O [IMD-0354] + CS(=O)(=O)CCNCc1ccc(-c2ccc3ncnc(Nc4ccc(OCc5cccc(F)c5)c(Cl)c4)c3c2)o1 [Lapatinib] (partner 2 µM)
In outline:
(§1)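 Lung cancer cell lines were pin-tool dosed in 1536-well plates on the day after seeding, with either a lone drug or a fixed anchor-drug dose plus five library-drug doses (not always all listed) in √10 steps. Nuclei were counted on 4× images after 5 days. Relative viability is the ratio of treated-well to vehicle-well nuclei counts, with each value a median of duplicate plates.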

Compound in test [2]: Cc1cnc(CNC(=O)c2c(=O)c3ccc(N4CCCN(C)CC4)nc3n3c2sc2ccccc23)cn1 [CX-5461] + Nc1ncn([C@H]2C[C@H](O)[C@@H](CO)O2)c(=O)n1 [Decitabine] (partner 2 µM)
In outline: as §1

Compound in test [3]: O=C(Nc1cc(C(F)(F)F)cc(C(F)(F)F)c1)c1cc(Cl)ccc1O [IMD-0354] + Cc1nc(NC(=O)N2CCC[C@H]2C(N)=O)sc1-c1ccnc(C(C)(C)C(F)(F)F)c1 [Alpelisib] (partner 2 µM)
In outline: as §1

Compound in test [4]: Cc1cnc(CNC(=O)c2c(=O)c3ccc(N4CCCN(C)CC4)nc3n3c2sc2ccccc23)cn1 [CX-5461] + O=C(CCCCCCC(=O)Nc1ccccc1)NO [Vorinostat] (partner 1 µM)
In outline: as §1

NCI-H3122: the relative viability in test [1] (first compound 0.04 µM) turned out to be 1.05; in test [1] (first compound 0.1265 µM), 0.983; in test [1] (first compound 0.4 µM) it was 0.747; in test [1] (first compound 1.265 µM) it was 0.202; in test [1] (first compound 4 µM), 0.211; in test [2] (first compound 0.01 µM) it was 0.407. Further, the relative viability in test [2] (first compound 0.03162 µM) is 0.387; in test [2] (first compound 0.1 µM), 0.354; in test [2] (first compound 0.3162 µM) it was 0.515; in test [2] (first compound 1 µM) it was 0.417; in test [3] (first compound 0.04 µM) it was 0.845; in test [3] (first compound 0.1265 µM), 0.917. For the same cell line, the relative viability in test [3] (first compound 0.4 µM) turned out to be 0.365; in test [3] (first compound 1.265 µM) it was 0.271; in test [3] (first compound 4 µM), 0.163; in test [4] (first compound 0.01 µM), 1.02; in test [4] (first compound 0.03162 µM), 1.02; in test [4] (first compound 0.1 µM) it was 1.12. In addition, the relative viability worked out at 1.07 in test [4] (first compound 0.3162 µM) and 0.967 in test [4] (first compound 1 µM).

On to PC-3 [JPC-3], for which the relative viability is 0.484 in test [1] (first compound 0.04 µM); 0.434 in test [1] (first compound 0.1265 µM); 0.372 in test [1] (first compound 0.4 µM); 0.42 in test [1] (first compound 1.265 µM); 0.199 in test [1] (first compound 4 µM); 0.801 in test [2] (first compound 0.01 µM). Further, the relative viability in test [2] (first compound 0.1 µM) came to 0.842; in test [2] (first compound 0.3162 µM) it was 0.801; in test [2] (first compound 1 µM), 0.77; in test [3] (first compound 0.04 µM) it was 1.1; in test [3] (first compound 0.1265 µM) it was 1.04; in test [3] (first compound 0.4 µM), 0.714. Further, the relative viability is 0.774 in test [3] (first compound 1.265 µM); 0.183 in test [3] (first compound 4 µM); 0.765 in test [4] (first compound 0.01 µM); 0.783 in test [4] (first compound 0.1 µM); 0.869 in test [4] (first compound 0.3162 µM); 0.72 in test [4] (first compound 1 µM).

Take PC-14: the relative viability amounted to 0.291 in test [1] (first compound 0.04 µM); 0.384 in test [1] (first compound 0.1265 µM); 0.197 in test [1] (first compound 0.4 µM); 0.347 in test [1] (first compound 1.265 µM); 0.109 in test [1] (first compound 4 µM); 0.246 in test [2] (first compound 0.01 µM). Besides, the relative viability came out at 0.202 in test [2] (first compound 0.03162 µM); 0.152 in test [2] (first compound 0.1 µM); 0.204 in test [2] (first compound 0.3162 µM); 0.114 in test [2] (first compound 1 µM); 1.13 in test [3] (first compound 0.04 µM); 0.681 in test [3] (first compound 0.1265 µM). In addition, the relative viability in test [3] (first compound 0.4 µM) turned out to be 0.587; in test [3] (first compound 1.265 µM), 0.525; in test [3] (first compound 4 µM) it was 0.219; in test [4] (first compound 0.01 µM) it was 0.65; in test [4] (first compound 0.03162 µM) it was 0.797; in test [4] (first compound 0.1 µM), 0.533. The relative viability in test [4] (first compound 0.3162 µM) was determined as 0.527; in test [4] (first compound 1 µM), 0.106.

As for RERF-LC-KJ, the relative viability was 0.863 in test [1] (first compound 0.04 µM); 0.981 in test [1] (first compound 0.1265 µM); 0.507 in test [1] (first compound 0.4 µM); 0.355 in test [1] (first compound 1.265 µM); 0.265 in test [1] (first compound 4 µM); 0.686 in test [2] (first compound 0.01 µM). Moreover, the relative viability in test [2] (first compound 0.03162 µM) turned out to be 0.677; in test [2] (first compound 0.1 µM), 0.381; in test [2] (first compound 0.3162 µM), 0.528; in test [2] (first compound 1 µM), 0.41; in test [3] (first compound 0.04 µM), 0.823; in test [3] (first compound 0.1265 µM), 0.71. For the same cell line, the relative viability in test [3] (first compound 0.4 µM) worked out at 0.586; in test [3] (first compound 1.265 µM), 0.404; in test [3] (first compound 4 µM), 0.303; in test [4] (first compound 0.01 µM), 0.724; in test [4] (first compound 0.03162 µM), 0.756; in test [4] (first compound 0.1 µM), 0.532. Further, the relative viability in test [4] (first compound 0.3162 µM) was 0.589; in test [4] (first compound 1 µM), 0.54.

Take SK-LU-1: the relative viability came to 1.07 in test [1] (first compound 0.04 µM); 0.851 in test [1] (first compound 0.1265 µM); 0.376 in test [1] (first compound 0.4 µM); 0.47 in test [1] (first compound 1.265 µM); 0.27 in test [1] (first compound 4 µM); 0.722 in test [2] (first compound 0.01 µM). In addition, the relative viability was found to be 0.597 in test [2] (first compound 0.03162 µM); 0.709 in test [2] (first compound 0.1 µM); 0.754 in test [2] (first compound 0.3162 µM); 0.455 in test [2] (first compound 1 µM); 1.39 in test [3] (first compound 0.04 µM); 0.658 in test [3] (first compound 0.1265 µM). Moreover, the relative viability in test [3] (first compound 0.4 µM) was determined as 0.472; in test [3] (first compound 1.265 µM), 0.174; in test [3] (first compound 4 µM), 0.215; in test [4] (first compound 0.01 µM) it was 0.826; in test [4] (first compound 0.03162 µM), 0.721; in test [4] (first compound 0.1 µM), 0.777. Besides, the relative viability in test [4] (first compound 0.3162 µM) is 0.777; in test [4] (first compound 1 µM), 0.538.

Regarding SK-MES-1, the relative viability came out at 0.434 in test [1] (first compound 0.04 µM); 0.528 in test [1] (first compound 0.1265 µM); 0.377 in test [1] (first compound 0.4 µM); 0.369 in test [1] (first compound 1.265 µM); 0.236 in test [1] (first compound 4 µM); 0.379 in test [2] (first compound 0.01 µM). The relative viability in test [2] (first compound 0.03162 µM) was 0.398; in test [2] (first compound 0.1 µM), 0.413; in test [2] (first compound 0.3162 µM), 0.394; in test [2] (first compound 1 µM), 0.212; in test [3] (first compound 0.04 µM) it was 0.976; in test [3] (first compound 0.1265 µM), 0.834. Besides, the relative viability in test [3] (first compound 0.4 µM) worked out at 0.598; in test [3] (first compound 1.265 µM) it was 0.283; in test [3] (first compound 4 µM) it was 0.285; in test [4] (first compound 0.01 µM), 1.22; in test [4] (first compound 0.03162 µM), 1.22; in test [4] (first compound 0.1 µM), 1.13. Further, the relative viability came to 1.19 in test [4] (first compound 0.3162 µM) and 0.654 in test [4] (first compound 1 µM).

For SW 1573, the relative viability in test [1] (first compound 0.04 µM) was 1.07; in test [1] (first compound 0.1265 µM), 1.25; in test [1] (first compound 0.4 µM), 0.362; in test [1] (first compound 1.265 µM), 0.628; in test [1] (first compound 4 µM), 0.14; in test [2] (first compound 0.01 µM), 0.474. Moreover, the relative viability in test [2] (first compound 0.03162 µM) turned out to be 0.41; in test [2] (first compound 0.1 µM), 0.114; in test [2] (first compound 0.3162 µM), 0.392; in test [2] (first compound 1 µM), 0.214; in test [3] (first compound 0.04 µM), 0.768; in test [3] (first compound 0.1265 µM), 0.788. Moreover, the relative viability in test [3] (first compound 0.4 µM) was determined as 0.328; in test [3] (first compound 1.265 µM), 0.202; in test [3] (first compound 4 µM), 0.15; in test [4] (first compound 0.01 µM), 0.726; in test [4] (first compound 0.03162 µM), 0.668; in test [4] (first compound 0.1 µM) it was 0.116. The relative viability is 0.15 in test [4] (first compound 0.3162 µM) and 0.214 in test [4] (first compound 1 µM).
